From paper PMC12363342, “Investigating the N-terminal linker histone H1 subtypes as substrates for JmjC lysine demethylases” (RSC Chemical Biology, 2025)
Square brackets hold non-standard residues; d marks the D form. Ends that are not written are not given here. Lys(Me3) = C[N+](C)(C)CCCC[C@H](N)C(=O)O

test system: KDM6B; assay: LC-MS demethylation activity assay, KDM6B; format: biochemical, human; conditions: 2 μM KDM, 10 μM H1/H3 peptide, 10 μM FAS, 100 μM LAA, 20 μM 2OG, 50 mM HEPES pH 7.5, 2 h, room temperature, T (tri-) initial methylation state
Outline: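 H1 isoform peptides (10 μM) were incubated 2 h at room temperature with 2 μM recombinant N-terminally His6-tagged catalytic domains in 50 mM HEPES pH 7.5 containing FAS (10 μM), ascorbate (100 μM) and 2OG (20 μM). Reactions were quenched with formic acid (1% final), and demethylation was analysed by LC-MS (Q-TOF).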

Row | Substance | KDM6B demethylation activity, T
1 | KKKAAK[Lys(Me3)]AGGTPRKA [Peptide H1.2K26me3, 15-mer linker histone H1.2 residues 20-34 peptide, tri-methylated K26] | ● [red]
2 | KKKAR[Lys(Me3)]SAGAAKRKA [Peptide H1.4K25me3, 15-mer linker histone H1.4 residues 20-34 peptide, tri-methylated K25] | ● [red]
3 | KKKAA[Lys(Me3)]KAGGTPRKA [Peptide H1.2K25me3, 15-mer linker histone H1.2 residues 20-34 peptide, tri-methylated K25] | ● [red]
4 | KKKA[Lys(Me3)]KAGATAGKRK [Peptide H1.3K24me3, 15-mer linker histone H1.3 residues 20-34 peptide, tri-methylated K24] | ● [red]
5 | KKKATK[Lys(Me3)]AAGAGAAK [Peptide H1.5K26me3, 15-mer linker histone H1.5 residues 20-34 peptide, tri-methylated K26] | ● [red]
